Consider 21 compounds from patent publication US20140073801A1, “PYRROLIDINE DERIVATIVES AS SELECTIVE GLYCOSIDASE INHIBITORS AND USES THEREOF” (Summit Corporation Plc, priority 2011, published 2014).

Assay type in all cases: biochemical
Assay [1] has as its target T1, human OGA (Homo sapiens, UniProt O60502).
T1 construct: made in house
T1 sequence (O60502 1-916): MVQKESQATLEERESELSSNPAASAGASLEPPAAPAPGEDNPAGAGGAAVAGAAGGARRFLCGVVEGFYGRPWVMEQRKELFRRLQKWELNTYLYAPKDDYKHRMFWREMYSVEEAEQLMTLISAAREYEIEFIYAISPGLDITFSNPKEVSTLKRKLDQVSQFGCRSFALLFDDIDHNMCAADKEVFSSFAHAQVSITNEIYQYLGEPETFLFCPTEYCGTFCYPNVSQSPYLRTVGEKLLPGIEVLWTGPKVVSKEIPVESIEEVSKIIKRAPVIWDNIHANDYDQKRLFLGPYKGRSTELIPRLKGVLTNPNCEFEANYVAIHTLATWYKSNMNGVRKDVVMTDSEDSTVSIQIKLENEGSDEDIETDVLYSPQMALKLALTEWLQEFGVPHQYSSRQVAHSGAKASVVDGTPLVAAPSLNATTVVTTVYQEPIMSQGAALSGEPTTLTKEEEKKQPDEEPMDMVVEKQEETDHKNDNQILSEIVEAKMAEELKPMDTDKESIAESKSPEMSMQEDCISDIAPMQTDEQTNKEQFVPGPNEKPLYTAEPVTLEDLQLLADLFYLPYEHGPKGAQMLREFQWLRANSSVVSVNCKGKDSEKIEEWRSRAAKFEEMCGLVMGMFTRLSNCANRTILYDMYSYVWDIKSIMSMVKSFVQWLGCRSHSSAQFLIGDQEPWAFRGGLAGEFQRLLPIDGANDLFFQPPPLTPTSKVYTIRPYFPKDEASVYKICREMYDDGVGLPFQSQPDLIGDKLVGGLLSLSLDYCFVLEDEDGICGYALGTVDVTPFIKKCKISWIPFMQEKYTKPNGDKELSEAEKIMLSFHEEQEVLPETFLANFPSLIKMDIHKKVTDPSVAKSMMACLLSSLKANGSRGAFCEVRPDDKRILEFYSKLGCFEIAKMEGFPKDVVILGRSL
As to the kind of experiment: Determination of IC50 values for inhibition of human OGA. As to the method: Inhibitors identified from the screen described in Example 1 were evaluated for IC50 using a procedure adapted from Biochem. J. 2009, 420, 221-227. IC50 determination was carried out using a range of inhibitor concentrations from 300 μM to 0.003 μM or 100 μM to 0.001 μM. IC50 values were calculated using XLFit 4.

For assay [2], the system named is human β-hexosaminidase [human placenta] (HexA/B). In words: Determination of IC50 values for inhibition of human β-hexosaminidase. As to conditions: ratio. The procedure: (§1) Inhibitors identified from the screen described in Example 1 were evaluated for IC50 against human β-hexosaminidase [human placenta, Sigma-Aldrich] using a range of inhibitor concentrations from 300 μM to 0.003 μM or 100 μM to 0.001 μM and the following reaction conditions:
(§2) Reactions were carried out at room temperature for thirty minutes and then quenched through the addition of 150 μl 0.5M Na2CO3. Fluorescence readings were taken at excitation wavelength 360 nm and emission wavelength 450 nm. IC50 values were calculated using XLFit 4. The selectivity ratio for inhibition of human O-GlcNAcase over human β-hexosaminidase is defined here as:
(§3) IC50(human β-hexosaminidase)/IC50(Human OGA)

Assay [3] has as its target T2, human β-hexosaminidase [human placenta] (HexA/B).
T2 construct: other: human β-hexosaminidase, human placenta; room temperature, thirty minutes
The description is as above. The conditions noted are these: human β-hexosaminidase, human placenta; room temperature, thirty minutes. As to the method:
as §1, §2, §3

Take `CCCCCCN1[C@H](CNC(C)=O)[C@H](O)[C@H](O)[C@H]1CO` [Compound A035, N-(((2R,3S,4R,5R)-1-hexyl-3,4-dihydroxy-5-(hydroxymethyl)pyrrolidin-2-yl)methyl)acetamide]: the results for the IC50 in assay [1] and in assay [3] were 3900 nM and more than 300 µM, respectively. Further, the “Selectivity: IC50(human β-hexosaminidase)/IC50(Human OGA)” value in assay [2] is listed as more than 76.92.
Taken in the same sequence, the figures for `CCCCCCN1[C@H](CC(=O)NC)[C@H](O)[C@H](O)[C@@H]1CO` [Compound A036, 2-((2R,3S,4R,5S)-1-hexyl-3,4-dihydroxy-5-(hydroxymethyl)pyrrolidin-2-yl)-N-methylacetamide] were 136000 nM, 73 µM and 0.54.
Taken in the same sequence, the figures for `CNC(=O)C[C@@H]1[C@H](O)[C@H](O)[C@@H](CO)N1CCOc1ccccc1` [Compound A037, 2-((2R,3S,4R,5R)-3,4-dihydroxy-5-(hydroxymethyl)-1-(2-phenoxyethyl)pyrrolidin-2-yl)-N-methylacetamide] were 228 nM, more than 300 µM and more than 1315.
For `CC(=O)NC[C@@H]1[C@H](O)[C@H](O)[C@@H](CO)N1CCCc1ccccc1` [Compound A038, N-(((2R,3S,4R,5R)-3,4-dihydroxy-5-(hydroxymethyl)-1-(3-phenylpropyl)pyrrolidin-2-yl)methyl)acetamide], the figures for the IC50 in assay [1] and in assay [3] were 1300 nM and more than 300 µM, respectively. The “Selectivity: IC50(human β-hexosaminidase)/IC50(Human OGA)” value in assay [2] is recorded as more than 230.
The like results for `C=CCNC(=O)C[C@@H]1[C@H](O)[C@H](O)[C@@H](CO)N1CCCCCC` [Compound A039, N-allyl-2-((2R,3S,4R,5R)-1-hexyl-3,4-dihydroxy-5-(hydroxymethyl)pyrrolidin-2-yl)acetamide] were, in that order, 1590 nM, more than 300 µM and more than 188.68.
The like results for `CNC(=O)C[C@@H]1[C@H](O)[C@H](O)[C@@H](CO)N1CCCCCCO` [Compound A040, 2-((2R,3S,4R,5R)-3,4-dihydroxy-1-(6-hydroxyhexyl)-5-(hydroxymethyl)pyrrolidin-2-yl)-N-methylacetamide] were, in that order, 45 nM, 151 µM and 3355.
Taken in the same sequence, the figures for `CNC(=O)C[C@@H]1[C@H](O)[C@H](O)[C@@H](CO)N1CCC1CCCCC1` [Compound A041, 2-((2R,3S,4R,5R)-1-(2-cyclohexylethyl)-3,4-dihydroxy-5-(hydroxymethyl)pyrrolidin-2-yl)-N-methylacetamide] were 14 nM, 114 µM and 8142.
`CNC(=O)[C@H]1N[C@@H](CO)[C@@H](O)[C@@H]1O` [Compound A042, (2S,3R,4R,5S)-3,4-dihydroxy-5-(hydroxymethyl)-N-methylpyrrolidine-2-carboxamide]: the 50% inhibitory concentration (IC50) – broadly, the concentration needed to halve the response being measured – in assay [1] was found to be 2800 nM; in assay [3], 2.5 µM. Besides, the “Selectivity: IC50(human β-hexosaminidase)/IC50(Human OGA)” value in assay [2] turned out to be 0.89.
The like results for `CNC(=O)[C@H]1NC[C@@H](O)[C@@H]1O` [Compound A043, (2S,3R,4R)-3,4-dihydroxy-N-methylpyrrolidine-2-carboxamide] were, in that order, 10200 nM, 14 µM and 1.37.
Taken in the same sequence, the figures for `CNC(=O)C[C@H]1N[C@H](CO)[C@@H](O)[C@@H]1O` [Compound A044, 2-((2R,3R,4R,5R)-3,4-dihydroxy-5-(hydroxymethyl)pyrrolidin-2-yl)-N-methylacetamide] were 27.9 nM, 0.13 µM and 4.66.
As for `CNC(=O)C[C@@H]1N[C@H](CO)[C@@H](O)[C@@H]1O` [Compound A045, 2-((2S,3R,4R,5R)-3,4-dihydroxy-5-(hydroxymethyl)pyrrolidin-2-yl)-N-methylacetamide], the half-maximal inhibitory concentration (IC50) in assay [1] came to 586 nM; in assay [3] it was 2.76 µM. Further, the “Selectivity: IC50(human β-hexosaminidase)/IC50(Human OGA)” value in assay [2] came to 4.71.
The like results for `CCCCCCN1[C@H](CO)[C@@H](O)[C@H](O)[C@H]1CC(=O)NC` [Compound A046, 2-((2R,3R,4R,5R)-1-hexyl-3,4-dihydroxy-5-(hydroxymethyl)pyrrolidin-2-yl)-N-methylacetamide] were, in that order, 23.7 nM, 0.0099 µM and 0.42.
The like results for `CCCCCCN1[C@H](CO)[C@@H](O)[C@H](O)[C@@H]1CC(=O)NC` [Compound A047, 2-((2S,3R,4R,5R)-1-hexyl-3,4-dihydroxy-5-(hydroxymethyl)pyrrolidin-2-yl)-N-methylacetamide] were, in that order, 926 nM, 0.405 µM and 0.44.
Consider `O=C(C[C@H]1N[C@H](CO)[C@@H](O)[C@H]1O)NC1CC1` [Compound A048, N-cyclopropyl-2-((2R,3S,4R,5R)-3,4-dihydroxy-5-(hydroxymethyl)pyrrolidin-2-yl)acetamide], for which the IC50 in assay [1] is 23800 nM; in assay [3], more than 300 µM. Besides, the “Selectivity: IC50(human β-hexosaminidase)/IC50(Human OGA)” value in assay [2] is more than 12.6.
Taken in the same sequence, the figures for `CCCCCCN1[C@H](CC(=O)NC2CC2)[C@H](O)[C@H](O)[C@H]1CO` [Compound A049, N-cyclopropyl-2-((2R,3S,4R,5R)-1-hexyl-3,4-dihydroxy-5-(hydroxymethyl)pyrrolidin-2-yl)acetamide] were 1060 nM, more than 300 µM and more than 283.
For `CCNC(=O)C[C@@H]1N[C@H](CO)[C@@H](O)[C@@H]1O` [Compound A051, 2-((2S,3R,4R,5R)-3,4-dihydroxy-5-(hydroxymethyl)pyrrolidin-2-yl)-N-ethylacetamide], the 50% inhibitory concentration (IC50) in assay [1] was 28800 nM; in assay [3], more than 300 µM. In addition, in assay [2], the “Selectivity: IC50(human β-hexosaminidase)/IC50(Human OGA)” value was more than 10.43.
With `CCCCCCN1[C@H](CO)[C@@H](O)[C@H](O)[C@@H]1CC(=O)NCC` [Compound A054, N-ethyl-2-((2S,3R,4R,5R)-1-hexyl-3,4-dihydroxy-5-(hydroxymethyl)pyrrolidin-2-yl)acetamide], the half-inhibitory concentration (IC50) in assay [1] is 6980 nM; in assay [3], more than 300 µM. In addition, the “Selectivity: IC50(human β-hexosaminidase)/IC50(Human OGA)” value in assay [2] is more than 42.98.
The like results for `CCCCCCN1[C@H](CC(=O)NC)[C@@H](O)[C@H](O)[C@@H]1CO` [Compound A056, 2-((2R,3R,4R,5S)-1-hexyl-3,4-dihydroxy-5-(hydroxymethyl)pyrrolidin-2-yl)-N-methylacetamide] were, in that order, 580 nM, 0.0107 µM and 0.02.
Taken in the same sequence, the figures for `CNC(=O)C[C@H]1[C@@H](O)[C@H](O)[C@H](CO)N1CCCc1ccccc1` [Compound A057, 2-((2S,3R,4R,5S)-3,4-dihydroxy-5-(hydroxymethyl)-1-(3-phenylpropyl)pyrrolidin-2-yl)-N-methylacetamide] were 39200 nM, 4.26 µM and 0.11.
The like results for `CNC(=O)C[C@@H]1[C@@H](O)[C@H](O)[C@H](CO)N1CCCc1ccccc1` [Compound A058, 2-((2R,3R,4R,5S)-3,4-dihydroxy-5-(hydroxymethyl)-1-(3-phenylpropyl)pyrrolidin-2-yl)-N-methylacetamide] were, in that order, 228 nM, 0.031 µM and 0.14.
Consider `CNC(=O)[C@H]1N[C@H](CO)[C@@H](O)[C@@H]1O` [Compound A059, (2S,3R,4R,5R)-3,4-dihydroxy-5-(hydroxymethyl)-N-methylpyrrolidine-2-carboxamide], for which the IC50 in assay [1] was 7 nM; in assay [3] it was 0.0299 µM. The “Selectivity: IC50(human β-hexosaminidase)/IC50(Human OGA)” value in assay [2] was found to be 4.27.
